Measurements reported in BigSolDB 2.1.

Conditions: 298.15 K

O=C(C(=O)c1ccccc1)c1ccccc1
Conditions | solubility (mole fraction)
in 2,2,2-trifluoroethanol | 0.0352
in 2-butanone | 0.184
in 2-methyl-1-pentanol | 0.0139
in 3,7-dimethyl-1-octanol | 0.0173
in DMSO | 0.0228
in acetone | 0.16
in acetonitrile | 0.0635
in butyronitrile | 0.151
in chlorobenzene | 0.201
in cyclohexanone | 0.241
in diethyl ether | 0.0674
in diisopropyl ether | 0.0309
in methyl acetate | 0.152
in n-decane | 0.00855
in n-decanol | 0.0212
in n-hexadecane | 0.0118
in propionitrile | 0.129
in propylene carbonate | 0.094
in tert-butanol | 0.0106
